Measured values: paper PMC7389181, “The interaction with fungal cell wall polysaccharides determines the salt tolerance of antifungal plant defensins” (The Cell Surface, 2019)

Key:
[1] = Polysaccharide binding (solution depletion) to yeast β-glucan; conditions: one-site binding model
Description: (§1) Defensin binding to polysaccharides was examined using the protocol described in ([Osmond et al., 2001]) with some modifications. Briefly, the insoluble polysaccharides, yeast β-glucan (Megazyme), chitin from shrimp shells (Sigma), and microcrystalline cellulose (Sigma) were washed twice with water and once with phosphate buffered saline (PBS) and resuspended in PBS at 100 mg/mL. The appropriate volume of polysaccharide suspension was transferred to a 1.5 mL microfuge tube. PBS was added to increase the volume to 47.5 µL followed by defensin (2.5 µL of 0.8 mg/mL in H2O). This mixture was incubated on a rotating wheel at room temperature for 30 min before insoluble polysaccharide was pelleted at 17 000 g. Supernatant (25 µL) was transferred to a clean 1.5 mL microfuge tube, mixed with 5 µL of a 1:9 mix of Bond Breaker reducing agent (ThermoFisher):NuPage LDS Loading Buffer (Invitrogen) and heated to 95 °C for 20 min. Samples (20 µL) were loaded onto a 10% NOVEX Bolt BisTris gel (Life Technologies). Proteins were visualized by staining with RAPIDstain (Calbiochem) and imaged on a ChemiDoc (Bio-Rad). Densitometry was performed on resulting bands using the quantitation tool in ImageLab (V4.0 Bio-Rad) and the abundance of defensin remaining in the supernatant was calculated relative to the no polysaccharide control. Relative binding to the pellet was inferred as the amount of defensin that had been depleted from the supernatant (1-relative binding to pellet). All experiments were performed in triplicate. Kd values were calculated by plotting the relative binding vs the polysaccharide concentration in Prism (V7.0 GraphPad) and using the non-linear regression tool with the one-site binding hyperbola equation.

[2] = Polysaccharide binding (solution depletion) to chitin; parameters: species or system shrimp; conditions: one-site binding model
Description: as §1

[3] = Polysaccharide binding (solution depletion) to cellulose; conditions: SDS-PAGE analysis of supernatant, 3 independent experiments
Description: as §1, with “Samples (20 µL) were loaded onto a 10% NOVEX Bolt BisTris gel (Life Technologies). Proteins were visualized by staining with RAPIDstain (Calbiochem) and imaged on a ChemiDoc (Bio-Rad).” left out, “Relative binding to the pellet was inferred as the amount of defensin that had been depleted from the supernatant (1-relative binding to pellet). All experiments were performed in triplicate.” left out

[4] = test system: S. cerevisiae BY4741; assay: Antifungal growth assay, wild type; assay type: cell-based, Saccharomyces cerevisiae; conditions: 1/2 PDB, twofold dilution series, lowest concentration with no visible growth, three independent experiments
Description: (§2) Saccharomyces cerevisiae deletion strains were retrieved from the haploid non-essential deletion collection (ThermoScientific) and were isogenic with the wild type BY4741 (MATa his3Δ1 leu2Δ0 met15Δ0 ura3Δ0). Candida albicans experiments were performed with strain ATCC90028.
(§3) Antifungal assays were performed as described in ([Bleackley et al., 2014]). S. cerevisiae cells were prepared by diluting to an OD600 = 0.01 and C. albicans cells were diluted to OD600 = 0.0002 in ½ strength potato dextrose broth (1/2 PDB) (Becton Dickinson). Assays investigating the combined effect of chemical cell wall synthesis inhibitors with defensins were performed as described in ([Bleackley et al., 2017]). Synergy was assessed using the fractional inhibitory concentration (FIC) equation. FIC=MICAcombination/MICAalone+MICBcombination/MICBalone

[5] = test system: S. cerevisiae fks1Δ; assay: Antifungal growth assay, 1,3-β-glucan synthase deletion strain; assay type: cell-based, Saccharomyces cerevisiae; conditions: 1/2 PDB, twofold dilution series, lowest concentration with no visible growth, three independent experiments
Description: as §2, §3

[6] = test system: S. cerevisiae chs3Δ; assay: Antifungal growth assay, chitin synthase deletion strain; assay type: cell-based, Saccharomyces cerevisiae; conditions: 1/2 PDB, twofold dilution series, lowest concentration with no visible growth, three independent experiments
Description: as §2, §3

[7] = test system: C. albicans; assay: Checkerboard synergy assay with polysaccharide synthesis inhibitors; assay type: cell-based, Candida albicans; conditions: for MIC: Candida albicans, read-out: MIC of polysaccharide synthesis inhibitor alone
Description: as §2, §3
(§4) Synergy is defined as an FIC value of less than 0.5. Assays investigating the activity of defensins in salt were set up using the same checkerboard method as the synergy assays but with NaCl in place of one of the antifungal molecules.

[8] = test system: S. cerevisiae; assay: Checkerboard synergy assay with polysaccharide synthase inhibitors; assay type: cell-based, Saccharomyces cerevisiae; conditions: average of three independent experiments ± standard deviation, synergy FIC <0.5
Description: as §3, §4

[9] = test system: yeast spheroplasts; assay: Cell death of spheroplasts, SYTOX green flow cytometry; assay type: cell-based, Saccharomyces cerevisiae
Description: (§5) Spheroplasts were prepared as outlined in ([Guthrie and Fink, 2002]) with modifications. Cells were prepared with and without the addition of zymolyase (Sigma) and washed twice with ½ PDB with 1 M sorbitol prior to any defensin treatment. Successful hydrolysis of the cell wall was assessed by pelleting an aliquot of spheroplasts, resuspending in MilliQ H2O and assessing cell lysis. For survival assays, intact cells or spheroplasts were diluted in ½ PDB with 1 M sorbitol to an OD600 = 1. NaD1 (10 µL) at 0, 25, 50 or 100 µM was added to 90 µL of prepared cells or spheroplasts and incubated at 30 °C for 30 min. Serial dilutions of each treatment were plated onto YPD and incubated for 24 h at 30 °C prior to imaging. Assessment of the effect of NaCl on the activity of NaD1 on spheroplasts was conducted as described above except for the addition of 100 mM NaCl to the ½ PDB 1 M sorbitol in the appropriate treatment. The cell death indicator, SYTOX green (ThermoFisher), was added to all treatments to a final concentration of 1 µM and FACS analysis was performed using a FACS Canto II (BD biosciences) using the FITC settings. Analysis was performed using Weasel V3.0 (Walter and Eliza Hall Institute of Medical Research).

[10] = test system: yeast cells with intact cell walls; assay: Cell death of intact yeast cells, SYTOX green flow cytometry; assay type: cell-based, Saccharomyces cerevisiae
Description: as §5

[11] = test system: S. cerevisiae BY4741; assay: Survival assay in the presence of exogenous 1,3-β-glucan (laminarin); assay type: cell-based, Saccharomyces cerevisiae; conditions: plated on YPD agar; for Laminarin concentration protecting against the antifungal activity of NaD1: 20 µM NaD1, 1 h
Description: To assess the effect of exogenous 1,3-β-glucan on the activity of NaD1, a survival assay was employed essentially as described in ([Bleackley et al., 2017]). A two-fold dilution series of laminarin (Sigma) from 50 mg/mL was prepared in MilliQ H2O and 10 µL of each concentration plus a no laminarin control were transferred to the wells of a U-bottom 96 well microtitre plate (Greiner Bio-one). NaD1 (10 µL of 200 µM solution) was added to each laminarin preparation. Controls with no NaD1 or laminarin were also prepared. An overnight culture of S. cerevisiae BY4741 cells was diluted to OD600 = 0.1 in ½ PDB. The diluted yeast cell suspension was then added to each of the wells of the microtitre plate and incubated at 30 °C with shaking at 750 rpm in a Thermomixer (Eppendorff) for 1 h. A fivefold dilution series of each treatment was then spotted onto YPD agar (1% yeast extract, 2% peptone, 2% dextrose, 2% agar) and incubated at 30 °C prior to imaging.

[12] = test system: S. cerevisiae; assay: Growth inhibition in varying NaCl (checkerboard); assay type: cell-based, Saccharomyces cerevisiae; conditions: 1/2 PDB; for Effect of increasing NaCl concentration on growth inhibitory activity: NaCl checkerboard up to about 100 mM, representative of three independent replicates
Description: as §3, §4

[13] = insoluble polysaccharide in PBS, 30 min room temperature, SDS-PAGE densitometry of supernatant, Kd based on concentration of monosaccharide units, ± SEM, three independent replicates
[14] = solution depletion, SDS-PAGE densitometry, polysaccharide mass concentration, 3 independent experiments
[15] = C. albicans checkerboard, synergy defined as FIC < 0.5

## NaD1: plant defensin from the ornamental tobacco Nicotiana alata, isolated from flowers (RECKTESNTFPGICITKPPCRKACISEKFTDGHCSKILRRCLCTKPC; UniProt Q8GTM0 26-72, looked up)
[1]; [13]
  Kd: 25.9 ± 5 mM
[1]; [14]
  Kd, β-glucan: 4200 ± 800 µg/mL
[2]; [13]
  Kd: 33 ± 11.8 mM
[2]; [14]
  Kd, chitin: 6700 ± 2400 µg/mL
[3]
  Binding to cellulose: did not bind
[4]
  MIC: 2.5 µM
[5]
  MIC: 1.25 µM
[6]
  MIC: 2.5 µM
[7]; [15]
  FIC in combination with caspofungin: 0.3
  FIC in combination with nikkomycin Z: 0.92
[8]
  FIC in combination with caspofungin: 0.3 ± 0.06
[9]; 1 M sorbitol with 100 mM NaCl, SYTOX green
  NaD1 concentration giving significant cell death: ≥ 0.313 µM
[9]; NaD1 concentrations above 0.625 µM, 1/2 PDB with 1 M sorbitol, 30 °C 30 min
  Cell death (SYTOX green): over 60%
[10]; 1 M sorbitol with 100 mM NaCl, up to 10 µM NaD1, SYTOX green
  Effect on cell death: unaffected
[10]; NaD1 5 µM, 1/2 PDB with 1 M sorbitol, 30 °C 30 min
  Cell death (SYTOX green): 60%
[11]; 20 µM NaD1, absence of laminarin, 1 h
  Survival of yeast cells: eliminated all viable yeast cells
[12]
  Effect of increasing NaCl concentration on growth inhibitory activity: progressively poorer inhibitor

## CC[C@H](C)C[C@H](C)CCCCCCCCC(=O)N[C@H]1C[C@@H](O)[C@@H](NCCN)NC(=O)[C@@H]2[C@@H](O)CCN2C(=O)[C@H]([C@H](O)CCN)NC(=O)[C@H]([C@H](O)[C@@H](O)c2ccc(O)cc2)NC(=O)[C@@H]2C[C@@H](O)CN2C(=O)[C@H]([C@@H](C)O)NC1=O [caspofungin, reference compound]
[7]
  MIC: 0.25 µg/mL

## DmAMP1: defensin from Dahlia merckii expressed in Pichia pastoris (ELCEKASKTWSGNCGNTGHCDNQCKSWEGAAHGACHVRNGKHMCFCYFNC; UniProt P0C8Y4 1-50, looked up)
[1]; [13]
  Kd, β-glucan: No binding
[2]; [13]
  Kd, chitin: Neither TsD10 nor DmAMP1 bound
[4]
  MIC: 0.31 µM
[5]
  MIC: 0.16 µM
[6]
  MIC: 0.31 µM
[8]
  FIC in combination with caspofungin: 0.6 ± 0.06
  FIC in combination with nikkomycin: 0.64 ± 0.16
[12]
  Effect of increasing NaCl concentration on growth inhibitory activity: no loss of growth inhibitory activity
[12]; absence of added NaCl, absorbance at 595 nm
  Concentration completely inhibiting growth: 0.313 µM

## C[C@@H]([C@H](N)C(=O)N[C@H](C(=O)O)[C@H]1O[C@@H](n2ccc(=O)[nH]c2=O)[C@H](O)[C@@H]1O)[C@H](O)c1ccc(O)cn1 [nikkomycin Z, reference compound]
[7]
  MIC: 2.5 µg/mL

## laminarin
[11]
  Laminarin concentration protecting against the antifungal activity of NaD1: ≥ 1.25 mg/mL
[11]; listed as Laminarin
  Laminarin concentration protecting against the antifungal activity of NaD1: above 1.25 mg/mL
